Paper PMC9669442, “Discovery of novel inhibitors targeting nematode chitinase CeCht1: Virtual screening, biological evaluation, and molecular dynamics simulation” (Frontiers in Chemistry, 2022)

Biological target: T1, CeCht1 (CeCht1-CAD) (Caenorhabditis elegans, UniProt Q11174)
T1 construct: gene cht-1; secreted/overexpressed in Pichia pastoris GS115, purified as in Chen Q. et al. 2021; catalytic residues Asp175, Asp177, Glu179
Assay: end-point fluorescence assay, 4-methylumbelliferone release
Type: biochemical
Settings: not given
Source text: end-point fluorescence assay, 4-methylumbelliferone release on CeCht1 (CeCht1-CAD)

T1 sequence (Q11174 52-431): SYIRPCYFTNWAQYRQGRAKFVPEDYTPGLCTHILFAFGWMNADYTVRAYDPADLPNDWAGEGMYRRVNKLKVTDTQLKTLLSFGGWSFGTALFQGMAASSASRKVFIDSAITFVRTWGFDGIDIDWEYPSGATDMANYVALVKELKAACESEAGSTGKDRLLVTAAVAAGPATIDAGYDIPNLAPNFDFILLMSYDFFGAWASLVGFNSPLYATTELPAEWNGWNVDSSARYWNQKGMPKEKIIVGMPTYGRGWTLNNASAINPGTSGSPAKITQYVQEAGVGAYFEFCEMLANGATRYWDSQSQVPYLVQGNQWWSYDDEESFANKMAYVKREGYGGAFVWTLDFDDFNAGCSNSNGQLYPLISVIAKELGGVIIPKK

IC50 [µM]	SMILES
10 ± 2.6	COc1ccc2cc(C(C)NC(=O)Cn3nnnc3CN3CCCC3)ccc2c1 (stereo not shown) [HAU-7]
4.2 ± 0.5	CCn1c(=N)c(C(=O)NCCc2ccc(OC)cc2)cc2c(=O)n3cccc(C)c3nc21 [HAU-4, 1-ethyl-3-((4-methoxyphenethyl)carbamoyl)-10-methyl-5-oxo-1,5-dihydro-2H-dipyrido [1,2-a:2′,3′-d] pyrimidin-2-iminium]

Same assay, conditions: 4 μM 4-MU-(GlcNAc)2, 10 nM enzyme, 20 mM sodium phosphate pH 6.0, 1% DMSO, 25 °C, 20 min

Inhibition rate at 10 μM (%)	SMILES
2.0 ± 0.8	CCOc1ccc2ccccc2c1/C=N/NC(=O)CNC(=O)c1ccc2c(c1)OCCO2 [HAU-15]
0.4 ± 0.2	Cc1ccc2nc(SCc3noc(CCC(=O)Nc4ccc(C)c(C)c4)n3)[nH]c2c1 [HAU-3]
30.4 ± 2.5	Cc1ccc(OCc2cc(=O)n3c4c(sc3n2)CCCC4)c(NC(=O)CC(C)C)c1 [HAU-1]
34.9 ± 1.6	CCOc1cccc(CNC2CC(C)(C)Cc3c2cnn3-c2ccc(C)cc2)c1O (stereo not shown) [HAU-11]
39.4 ± 3.3	COc1ccc(OC)c(-c2nc(C(=O)NCC3CCCO3)cc3c2[nH]c2ccccc23)c1 (stereo not shown) [HAU-9]
